From patent publication US12581252B2, “Substituted pyrrolo[3,4-b]pyridines as PI3K-α inhibitors” (Relay Therapeutics, Inc., priority 2020, dated 2026)

Biological target: H1047R PIK3CA enzyme (Homo sapiens, UniProt P42336, H1047R)
Assay: ADP-Glo Biochemical PIK3CA Kinase Assay

Sequence of H1047R PIK3CA enzyme (P42336 whole entry H1047R): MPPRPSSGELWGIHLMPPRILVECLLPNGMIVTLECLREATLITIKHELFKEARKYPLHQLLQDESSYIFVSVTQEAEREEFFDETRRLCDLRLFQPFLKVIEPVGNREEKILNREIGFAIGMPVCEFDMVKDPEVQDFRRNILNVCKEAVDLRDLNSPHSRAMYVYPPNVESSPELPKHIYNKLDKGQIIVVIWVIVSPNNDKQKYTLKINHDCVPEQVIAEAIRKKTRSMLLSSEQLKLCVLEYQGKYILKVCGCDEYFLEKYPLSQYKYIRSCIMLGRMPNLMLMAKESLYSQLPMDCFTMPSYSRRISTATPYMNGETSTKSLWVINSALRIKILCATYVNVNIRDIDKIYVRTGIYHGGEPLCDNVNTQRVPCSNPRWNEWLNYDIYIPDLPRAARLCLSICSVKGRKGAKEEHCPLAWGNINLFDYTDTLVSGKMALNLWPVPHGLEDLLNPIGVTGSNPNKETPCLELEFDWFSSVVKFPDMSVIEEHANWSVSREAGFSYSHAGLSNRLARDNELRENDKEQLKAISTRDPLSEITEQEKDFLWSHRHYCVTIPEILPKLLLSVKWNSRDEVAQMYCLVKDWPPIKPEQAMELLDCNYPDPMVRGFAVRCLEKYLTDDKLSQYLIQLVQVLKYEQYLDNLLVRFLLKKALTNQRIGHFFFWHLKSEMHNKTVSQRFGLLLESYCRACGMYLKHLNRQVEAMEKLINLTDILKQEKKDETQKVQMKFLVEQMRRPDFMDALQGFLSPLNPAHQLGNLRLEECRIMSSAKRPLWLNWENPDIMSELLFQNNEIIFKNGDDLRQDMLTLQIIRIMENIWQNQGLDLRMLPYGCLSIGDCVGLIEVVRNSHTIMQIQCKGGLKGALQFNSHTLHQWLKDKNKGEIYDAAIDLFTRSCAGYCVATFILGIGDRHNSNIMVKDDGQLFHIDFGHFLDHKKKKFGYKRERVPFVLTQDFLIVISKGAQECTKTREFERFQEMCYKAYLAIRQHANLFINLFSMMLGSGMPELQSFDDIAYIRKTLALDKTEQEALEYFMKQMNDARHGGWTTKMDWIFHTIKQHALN
Sequence of H1047R PIK3CA enzyme (P27986 whole entry partner): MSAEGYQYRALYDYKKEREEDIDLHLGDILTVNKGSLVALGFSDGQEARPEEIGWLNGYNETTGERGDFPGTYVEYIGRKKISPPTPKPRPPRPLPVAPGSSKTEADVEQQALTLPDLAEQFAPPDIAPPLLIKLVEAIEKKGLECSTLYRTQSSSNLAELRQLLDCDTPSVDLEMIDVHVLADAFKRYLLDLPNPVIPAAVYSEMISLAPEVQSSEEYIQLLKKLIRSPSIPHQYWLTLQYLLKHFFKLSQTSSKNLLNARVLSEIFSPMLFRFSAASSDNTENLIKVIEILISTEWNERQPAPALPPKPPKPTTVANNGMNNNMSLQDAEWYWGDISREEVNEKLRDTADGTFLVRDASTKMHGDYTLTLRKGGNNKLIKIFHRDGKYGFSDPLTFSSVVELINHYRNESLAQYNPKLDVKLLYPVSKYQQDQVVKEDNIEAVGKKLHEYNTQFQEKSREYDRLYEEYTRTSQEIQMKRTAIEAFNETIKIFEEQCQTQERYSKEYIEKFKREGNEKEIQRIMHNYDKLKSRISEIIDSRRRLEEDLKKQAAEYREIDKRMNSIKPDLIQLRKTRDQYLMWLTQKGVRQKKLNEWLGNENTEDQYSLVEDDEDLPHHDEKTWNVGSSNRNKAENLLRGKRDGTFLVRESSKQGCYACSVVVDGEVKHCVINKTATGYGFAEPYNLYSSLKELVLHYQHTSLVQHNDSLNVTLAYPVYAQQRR

Row | Compound | IC50 [nM]
1 | CC(C)[C@]1(O)CN(C(=O)Nc2cccc3c2[C@H](c2cc(F)ccc2Cl)NC3=O)c2ccc(F)cc21 (single isomer, unassigned) [Compound I-2453] | 1000 to 10000
2 | CC(C)[C@@]1(O)CN(C(=O)Nc2cccc3c2[C@@H](c2cc(F)ccc2Cl)NC3=O)c2ccc(F)cc21 (single isomer, unassigned) [Compound I-2454] | 100 to 500
3 | CC(C)[C@]1(O)CN(C(=O)Nc2cccc3c2[C@@H](c2cc(F)ccc2Cl)NC3=O)c2ccc(F)cc21 (single isomer, unassigned) [Compound I-2455] | 1000 to 10000
4 | CCC[C@]1(O)CN(C(=O)Nc2cccc3c2[C@@H](c2cc(F)ccc2Cl)NC3=O)c2ccc(F)cc21 (single isomer, unassigned) [Compound I-2456] | 1000 to 10000
5 | CCC[C@@]1(O)CN(C(=O)Nc2cccc3c2[C@@H](c2cc(F)ccc2Cl)NC3=O)c2ccc(F)cc21 (single isomer, unassigned) [Compound I-2457] | 500 to 1000
6 | CCC[C@]1(O)CN(C(=O)Nc2cccc3c2[C@H](c2cc(F)ccc2Cl)NC3=O)c2ccc(F)cc21 (single isomer, unassigned) [Compound I-2458] | 1000 to 10000
7 | CCC[C@@]1(O)CN(C(=O)Nc2cccc3c2[C@H](c2cc(F)ccc2Cl)NC3=O)c2ccc(F)cc21 (single isomer, unassigned) [Compound I-2459] | 1000 to 10000
8 | CC[C@]1(O)CN(C(=O)Nc2cccc3c2[C@@H](c2cc(F)ccc2Cl)NC3=O)c2ccc(F)cc21 (single isomer, unassigned) [Compound I-2460] | 1000 to 10000
9 | CC[C@]1(O)CN(C(=O)Nc2cccc3c2[C@H](c2cc(F)ccc2Cl)NC3=O)c2ccc(F)cc21 (single isomer, unassigned) [Compound I-2462] | 1000 to 10000
10 | CC[C@@]1(O)CN(C(=O)Nc2cccc3c2[C@H](c2cc(F)ccc2Cl)NC3=O)c2ccc(F)cc21 (single isomer, unassigned) [Compound I-2463] | 1000 to 10000
11 | N[C@]1(C(F)(F)F)CN(C(=O)Nc2cccc3c2[C@H](c2cc(F)ccc2Cl)NC3=O)c2ccc(F)cc21 (single isomer, unassigned) [Compound I-2472] | 500 to 1000
12 | O=C1N[C@H](c2cc(F)ccc2Cl)c2c(NC(=O)N3C[C@H](O)c4cc(F)ccc43)cc(-c3cnn(C(F)F)c3)cc21 (single isomer, unassigned) [Compound I-2475] | 1000 to 10000
13 | O=C1N[C@H](c2cc(F)ccc2Cl)c2c(NC(=O)N3C[C@@H](O)c4cc(F)ccc43)cc(-c3cnn(C(F)F)c3)cc21 (single isomer, unassigned) [Compound I-2476] | 10000 to 100000
14 | O=C1N[C@@H](c2cc(F)ccc2Cl)c2c(NC(=O)N3C[C@H](O)c4cc(F)ccc43)cc(-c3cnn(C(F)F)c3)cc21 (single isomer, unassigned) [Compound I-2478] | 100 to 500
15 | O=C1N[C@H](c2cc(F)ccc2Cl)c2c(NC(=O)N3C[C@@](O)(C(F)F)c4ccccc43)cccc21 (single isomer, unassigned) [Compound I-2484] | 10000 to 100000
16 | O=C1N[C@@H](c2cc(F)ccc2Cl)c2c(NC(=O)N3C[C@](O)(C(F)F)c4ccccc43)cccc21 (single isomer, unassigned) [Compound I-2485] | 1000 to 10000
17 | O=C1N[C@H](c2cc(F)ccc2Cl)c2c(NC(=O)N3C[C@](O)(C(F)F)c4ccccc43)cccc21 (single isomer, unassigned) [Compound I-2486] | 10000 to 100000
18 | N#Cc1cc(NC(=O)N2C[C@H](O)c3cc(F)ccc32)c2c(c1)C(=O)N[C@H]2c1cc(F)ccc1Cl (single isomer, unassigned) [Compound I-2491] | 100 to 500
19 | N#Cc1cc(NC(=O)N2C[C@@H](O)c3cc(F)ccc32)c2c(c1)C(=O)N[C@@H]2c1cc(F)ccc1Cl (single isomer, unassigned) [Compound I-2492] | 500 to 1000
20 | N#Cc1cc(NC(=O)N2C[C@@H](O)c3cc(F)ccc32)c2c(c1)C(=O)N[C@H]2c1cc(F)ccc1Cl (single isomer, unassigned) [Compound I-2493] | 100 to 500
21 | O=C1N[C@H](c2cc(F)ccc2Cl)c2c(NC(=O)N3C[C@](O)(C(F)(F)F)c4cc(F)ccc43)ccc(-n3cccn3)c21 (single isomer, unassigned) [Compound I-2494] | 1000 to 10000
22 | O=C1N[C@@H](c2cc(F)ccc2Cl)c2c(NC(=O)N3C[C@@](O)(C(F)(F)F)c4cc(F)ccc43)ccc(-n3cccn3)c21 (single isomer, unassigned) [Compound I-2495] | 10000 to 100000
23 | O=C1N[C@H](c2cc(F)ccc2Cl)c2c(NC(=O)N3C[C@@](O)(C(F)(F)F)c4cc(F)ccc43)ccc(-n3cccn3)c21 (single isomer, unassigned) [Compound I-2496] | 1000 to 10000
24 | C[C@@H](C#N)Cn1cc(-c2cc(NC(=O)N3C[C@H](O)c4cc(F)ccc43)c3c(c2)C(=O)N[C@H]3c2cc(F)ccc2Cl)cn1 (single isomer, unassigned) [Compound I-2499] | 1000 to 10000

Row | Compound | IC50 [nM]
25 | C[C@H](C#N)Cn1cc(-c2cc(NC(=O)N3C[C@H](O)c4cc(F)ccc43)c3c(c2)C(=O)N[C@@H]3c2cc(F)ccc2Cl)cn1 (single isomer, unassigned) [Compound I-2500] | 100 to 500
26 | C[C@@H](C#N)Cn1cc(-c2cc(NC(=O)N3C[C@H](O)c4cc(F)ccc43)c3c(c2)C(=O)N[C@@H]3c2cc(F)ccc2Cl)cn1 (single isomer, unassigned) [Compound I-2501] | 100 to 500
27 | C[C@H](C#N)Cn1cc(-c2cc(NC(=O)N3C[C@@H](O)c4cc(F)ccc43)c3c(c2)C(=O)N[C@H]3c2cc(F)ccc2Cl)cn1 (single isomer, unassigned) [Compound I-2502] | 1000 to 10000
28 | C[C@@H](C#N)Cn1cc(-c2cc(NC(=O)N3C[C@@H](O)c4cc(F)ccc43)c3c(c2)C(=O)N[C@@H]3c2cc(F)ccc2Cl)cn1 (single isomer, unassigned) [Compound I-2504] | 1000 to 10000
29 | C[C@@H](C#N)Cn1cc(-c2cc(NC(=O)N3C[C@@H](O)c4cc(F)ccc43)c3c(c2)C(=O)N[C@@H]3c2cc(F)ccc2Cl)cn1 (single isomer, unassigned) [Compound I-2505] | 1000 to 10000
30 | O=C1N[C@H](c2cc(F)ccc2Cl)c2c(NC(=O)N3C[C@@](O)(C(F)(F)F)c4ccccc43)cc(Cl)cc21 (single isomer, unassigned) [Compound I-2506] | 1000 to 10000
31 | O=C1N[C@@H](c2cc(F)ccc2Cl)c2c(NC(=O)N3C[C@](O)(C(F)(F)F)c4ccccc43)cc(Cl)cc21 (single isomer, unassigned) [Compound I-2507] | 1000 to 10000
32 | O=C1N[C@H](c2cc(F)ccc2Cl)c2c(NC(=O)N3C[C@](O)(C(F)(F)F)c4ccccc43)cc(Cl)cc21 (single isomer, unassigned) [Compound I-2508] | 1000 to 10000
33 | O=C1N[C@H](c2cc(F)ccc2Cl)c2c(NC(=O)N3C[C@@](O)(C(F)(F)F)c4cc(F)ccc43)cc(Cl)cc21 (single isomer, unassigned) [Compound I-2510] | 1000 to 10000
34 | O=C1N[C@@H](c2cc(F)ccc2Cl)c2c(NC(=O)N3C[C@](O)(C(F)(F)F)c4cc(F)ccc43)cc(Cl)cc21 (single isomer, unassigned) [Compound I-2511] | 100 to 500
35 | O=C1N[C@H](c2cc(F)ccc2Cl)c2c(NC(=O)N3C[C@](O)(C(F)(F)F)c4cc(F)ccc43)cc(Cl)cc21 (single isomer, unassigned) [Compound I-2512] | 1000 to 10000
36 | O=C1N[C@H](c2cc(F)ccc2Cl)c2c(NC(=O)N3C[C@@](O)(C(F)(F)F)c4cc(F)ccc43)cccc21 (single isomer, unassigned) [Compound I-2514] | 10000 to 100000
37 | O=C1N[C@@H](c2cc(F)ccc2Cl)c2c(NC(=O)N3C[C@](O)(C(F)(F)F)c4cc(F)ccc43)cccc21 (single isomer, unassigned) [Compound I-2515] | 1000 to 10000
38 | O=C1N[C@H](c2cc(F)ccc2Cl)c2c(NC(=O)N3C[C@](O)(C(F)(F)F)c4cc(F)ccc43)cccc21 (single isomer, unassigned) [Compound I-2516] | 1000 to 10000
39 | O=C1N[C@@H](c2cc(F)ccc2Cl)c2c(NC(=O)N3C[C@@](O)(C(F)(F)F)c4cc(F)ccc43)ccc(-n3ccnn3)c21 (single isomer, unassigned) [Compound I-2523] | 1000 to 10000
40 | O=C1N[C@H](c2cc(F)ccc2Cl)c2c(NC(=O)N3C[C@@](O)(C(F)(F)F)c4cc(F)ccc43)ccc(-n3ccnn3)c21 (single isomer, unassigned) [Compound I-2524] | 1000 to 10000
41 | O=C1N[C@H](c2cc(F)ccc2Cl)c2c(NC(=O)N3C[C@](O)(C(F)(F)F)c4cc(F)ccc43)ccc(-n3nccn3)c21 (single isomer, unassigned) [Compound I-2526] | 1000 to 10000
42 | O=C1N[C@@H](c2cc(F)ccc2Cl)c2c(NC(=O)N3C[C@@](O)(C(F)(F)F)c4cc(F)ccc43)ccc(-n3nccn3)c21 (single isomer, unassigned) [Compound I-2527] | 1000 to 10000
43 | O=C1N[C@@H](c2cc(F)ccc2Cl)c2c(NC(=O)N3C[C@](O)(C(F)(F)F)c4cc(F)ccc43)cc(-n3ccccc3=O)cc21 (single isomer, unassigned) [Compound I-2529] | 1000 to 10000
44 | O=C1N[C@@H](c2cc(F)ccc2Cl)c2c(NC(=O)N3C[C@@](O)(C(F)(F)F)c4cc(F)ccc43)cc(-n3ccccc3=O)cc21 (single isomer, unassigned) [Compound I-2530] | 1000 to 10000
45 | O=C1N[C@H](c2cc(F)ccc2Cl)c2c(NC(=O)N3C[C@](O)(C(F)(F)F)c4cc(F)ccc43)cc(-n3ccccc3=O)cc21 (single isomer, unassigned) [Compound I-2531] | 1000 to 10000
46 | O=C1N[C@@H](c2cc(F)ccc2Cl)c2c(NC(=O)N3C[C@](O)(C(F)(F)F)c4cc(F)ccc43)cc(-n3ncccc3=O)cc21 (single isomer, unassigned) [Compound I-2533] | 1000 to 10000
47 | O=C1N[C@@H](c2cc(F)ccc2Cl)c2c(NC(=O)N3C[C@@](O)(C(F)(F)F)c4cc(F)ccc43)cc(-n3ncccc3=O)cc21 (single isomer, unassigned) [Compound I-2534] | 500 to 1000
48 | O=C1N[C@H](c2cc(F)ccc2Cl)c2c(NC(=O)N3C[C@](O)(C(F)(F)F)c4cc(F)ccc43)cc(-n3ncccc3=O)cc21 (single isomer, unassigned) [Compound I-2535] | 1000 to 10000
